Square brackets hold non-standard residues; d marks the D form. Peptide text beside a SMILES is read from it.
How the values were obtained:
[1] = cited from earlier work
Description: This last feature is not shown by any traditional antibiotic and is expected to accelerate the healing of a damaged lung epithelium, especially in CF lungs, where wound-healing processes are highly compromised. Interestin ...

CD1 mice [2] = assay: Maximum tolerated dosage (MTD) and therapeutic index; assay type: in vivo, mouse
Protocol: (§1) Five-week-old female wild-type CD1 mice were anesthetized by isoflurane inhalation and instilled intratracheally with 1.5 mg/kg (corresponding to 300 μM) of Esc(1-21)-1c in the free or encapsulated form in 50 μL of PBS. Mice instilled with 50 μL of PBS or bare PVA-PLGA NPs were included for control. After 1 day and 14 days, mice were euthanized for tissue isolation and examined for histopathology. Tissues were fixed in situ with 4% paraformaldehyde for 10 min with open chest cavity. They were then embedded in paraffin, and 5 µm-thick tissue slices were prepared by staining in hematoxylin and eosin and analyzed for pathological severity. In parallel, another group of seven animals was anesthetized by isoflurane inhalation and instilled intratracheally with escalating concentrations up to 7 mg/kg Esc(1-21)-1c in 50 μL of PBS and monitored for survival to determine the MTDs.

CD1 mice [3] = assay: Mouse toxicity: histopathology after intratracheal instillation; assay type: in vivo
Protocol: as §1, with “After 1 day and 14 days, mice were euthanized for tissue isolation and examined for histopathology.” left out

[4] = Stability in bronchoalveolar lavage fluid (BAL); assay type: in vitro ADME, mouse
Protocol: Bronchoalveolar lavage fluid (BAL) was collected from male and female C57BL/6 mice (4–5 months old) according to the procedure described in [31, 32]. Mice were euthanized by means of CO2 narcosis; a small incision at the level of the neck was made and a blunt needle connected to a syringe was inserted into the trachea. Then, lungs were washed with 1 mL of sterile PBS. BAL samples from each mouse were pooled, centrifuged at 1000 rpm (corresponding to […]) for 5 min, and stored at −80 °C. The supernatant was used for stability tests.
Peptides were dissolved in 400 µL of PBS at a concentration of 300 µM, and added to an equal volume of BAL at a final concentration of 150 µM. At different time points, 150 μL aliquots were withdrawn and added to 500 µL of acetonitrile, and then centrifuged. The supernatants were diluted with 160 μL of 0.1% trifluoroacetic acid (TFA)—water and analyzed by RP-HPLC and mass spectrometry. Liquid chromatography was performed on a Phenomenex Jupiter C18 analytical column (300 Å, 5 μm, 250 × 4.6 mm) in a 30 min gradient, using 0.1% TFA in water as solvent A and acetonitrile as solvent B. Mass spectrometry analysis of diluted samples was performed with a Bruker Daltonic-ultraflex-matrix-assisted laser desorption ionization tandem time-of-flight (MALDI-TOF/TOF) mass spectrometer.

[5] = tested on: lungs of healthy CD1 mice; assay: Lung gene expression (RNA-seq) after intratracheal instillation; assay type: in vivo, mouse; conditions: i.t. 0.1 mg/kg (20 μM), 24 h, vs PBS-treated animals
Protocol: All animal experiments were carried out based on a protocol (n. 20087639) approved by the Institutional Animal Care and Use Committee of the University of Pittsburgh according to the National Institutes of Health (NIH) guide for the care and use of laboratory animals. Seven-week-old female wild-type CD1 mice were anesthetized by isoflurane inhalation and instilled intratracheally with 50 µL of peptide solution (0.1 mg/kg, i.e., 20 μM) or PVA-PLGA NP suspension (either bare NPs or NPs loaded with each peptide at 0.1 mg/kg), in PBS. Control mice were given 50 µL of PBS without peptide. After 24 h, mice were euthanized for lung tissue isolation to extract RNA for differential expression analysis (sequencing work was performed by Novogene US Marketing).

With `CC[C@H](C)[C@H](NC(=O)CN)C(=O)N[C@@H](Cc1ccccc1)C(=O)N[C@@H](CO)C(=O)N[C@@H](CCCCN)C(=O)N[C@@H](CC(C)C)C(=O)N[C@@H](C)C(=O)NCC(=O)N[C@@H](CCCCN)C(=O)N[C@@H](CCCCN)C(=O)N[C@H](C(=O)N[C@@H](CCCCN)C(=O)N[C@@H](CC(N)=O)C(=O)N[C@H](CC(C)C)C(=O)N[C@@H](CC(C)C)C(=O)N[C@H](C(=O)N[C@H](CO)C(=O)NCC(=O)N[C@@H](CC(C)C)C(=O)N[C@@H](CCCCN)C(=O)NCC(N)=O)[C@@H](C)CC)[C@@H](C)CC` [Esc(1-21)-1c] (H-GIFSKLAGKKIKN[dL]LI[dS]GLKG-NH2) as the compound, how does the “resistance to enzymatic degradation compared with Esc(1-21)” value [1] read?
Its value is “more resistant to enzymatic degradation”.

What about the range of motion (CD1 mice [2]; 1 h and 24 h after i.t. instillation at 7 mg/kg) of the same compound?
Its range of motion is “maintained the same range of motion”.

And the “maximum tolerated dosage (highest dosage tested, well-tolerated)” value (CD1 mice [2]; i.t. instillation, increasing concentrations from 1.5 to 7 mg/kg in 50 μL PBS, survival monitored for 14 days)?
The value was at least 7 mg/kg.

What about the survival (CD1 mice [2]; i.t. up to 7 mg/kg, monitored for 14 days) of the same compound?
Its survival is “remained viable for the entire duration of the experiment”.

What about the “lung histology: inflammatory response or lung tissue damage” value (CD1 mice [3]; CD1 mice, i.t. 1.5 mg/kg (~300 µM) peptide free or encapsulated, or corresponding amount of bare NPs, 1 day and 14 days, H&E) of the same compound?
Its value is “did not detect any inflammatory response”.

And the “histology of other organs (liver and kidneys)” value (CD1 mice [3]; CD1 mice, i.t. 1.5 mg/kg free or encapsulated, 1 day and 14 days, vs control)?
Its value is “no visible tissue injury, necrosis, or alteration in cell density”.

What about the “histology of liver, spleen and kidneys” value (CD1 mice [3]; mice, i.t. 7 mg/kg, 48 h, vs control) of the same compound?
Its value is “no alteration in the tissue structure”.

What about the “lung histopathology: recruitment of inflammatory cells” value (CD1 mice [3]; mice, i.t. 7 mg/kg, within 48 h, vs PBS-treated mice) of the same compound?
The value was “did not reveal significant recruitment of inflammatory cells”.

And the “time in BAL at which the peak of the full-length peptide (2185 Da) is still detected” value ([4]; mouse (C57BL/6) BAL supernatant mixed 1:1 with peptide in PBS, 300 μM (method: final 150 µM), time points 6 and 24 h, acetonitrile work-up, RP-HPLC C18 and MALDI-TOF/TOF)?
The value was at least 24 h.

What about the “time of incubation with BAL after which the full-length peptide (2185 Da) is detectable” value ([4]; mouse BAL, high peptide concentration (as for 7 mg/kg), mass spectra (Figure S5)) of the same compound?
Its value is at least 48 h.

And the “Log2FC, gene Chil1 (up)” value [5]?
Its value is 34.248.

What about the “Log2FC, gene Dynlt1f (up)” value [5] of the same compound?
Its value is 19.702.

What about the “Log2FC, gene Eif4a-ps4 (up)” value [5] of the same compound?
The value was 17.867.

And the “Log2FC, gene Rpl26 (up)” value [5]?
Its value is 20.049.

What about the “Log2FC, gene Snhg11 (down)” value [5] of the same compound?
Its value is −1.949.

From publication PMC9697339, “Pulmonary Safety Profile of Esc Peptides and Esc-Peptide-Loaded Poly(lactide-co-glycolide) Nanoparticles: A Promising Therapeutic Approach for Local Treatment of Lung Infectious Diseases” (Pharmaceutics, 2022)
